Laboratory results: patent US9909125B2, “Molecular targets for selective eradication of senescent cells” (Everon Biosciences, Inc., priority 2013, dated 2018)

Tested on: senescent human neonatal dermal fibroblasts
Assay: Crystal violet staining of shRNA-transduced senescent fibroblasts (FIG. 4)
Format: cell-based
Details: lentiviral shRNA, puromycin 72 hours, crystal violet at 20 days; senescence by bleomycin 10 μg/ml 24 hr + 10 days
Description: FIG. 4. Effect of selected shRNAs on viability of proliferating and senescent human neonatal dermal fibroblasts. Senescence was induced by treatment with bleomycin (10 μg/ml) for 24 hr followed by incubation for 10 days to establish senescent phenotype. (1) The proliferating and senescent cells were transduced with lentiviruses carrying both shRNA and mCherry constructs. Transduced cells were selected with puromycin for 72 hours and the presence of shRNA construct was confirmed by microscopic detection of mCherry fluorescence (see example of mCherry fluorescence in FIG. 4, panel 1). In 8 days for proliferating and 20 days for senescent cells, the cells were stained with crystal violet dye. The images of the live/dead cells were obtain using a digital camera (panels 2-4).
To confirm universal activity of identified target genes across different senescence models 60 candidate shRNA identified in all primary screenings were transduced to a secondary models of senescence: human diploid dermal fibroblasts induced to senescence by bleomycin treatment (DNA-damage induction) or senescence was induced by replicative exhaustion (replicative senescence).

Substance | effect on viability of senescent cells
FGF1: shRNA coding sequence targeting FGF1 (DNA CCTGATAACAAGTAAGGATATGTTAATATTCATAGCATATCCTTGCTTGTTATCAGG) | critical for viability of senescent cells
POU5F1: shRNA coding sequence targeting POU5F1 (DNA TCATTCACTAAGGAAGGAATTGTTAATATTCATAGCAATTCCTTCCTTAGTGAATGA) | critical for viability of senescent cells
